This experiment addresses T1, BMPR1A (ALK3) (Homo sapiens, UniProt P36894).
T1 construct: purchased Thermo Fisher Scientific (Life Technologies) SelectScreen
The experiment in a line: SelectScreen LanthaScreen. The class given is binding. Particulars: read-out: % displacement. An outline of the steps: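 SelectScreen broad panel; activity (Z'LYTE, Adapta) plus binding formats. ATP: Km app for CSF1R Z'LYTE; 10 for CAMK1 Adapta. Readout = % per kinase.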

T1 sequence (P36894 24-532): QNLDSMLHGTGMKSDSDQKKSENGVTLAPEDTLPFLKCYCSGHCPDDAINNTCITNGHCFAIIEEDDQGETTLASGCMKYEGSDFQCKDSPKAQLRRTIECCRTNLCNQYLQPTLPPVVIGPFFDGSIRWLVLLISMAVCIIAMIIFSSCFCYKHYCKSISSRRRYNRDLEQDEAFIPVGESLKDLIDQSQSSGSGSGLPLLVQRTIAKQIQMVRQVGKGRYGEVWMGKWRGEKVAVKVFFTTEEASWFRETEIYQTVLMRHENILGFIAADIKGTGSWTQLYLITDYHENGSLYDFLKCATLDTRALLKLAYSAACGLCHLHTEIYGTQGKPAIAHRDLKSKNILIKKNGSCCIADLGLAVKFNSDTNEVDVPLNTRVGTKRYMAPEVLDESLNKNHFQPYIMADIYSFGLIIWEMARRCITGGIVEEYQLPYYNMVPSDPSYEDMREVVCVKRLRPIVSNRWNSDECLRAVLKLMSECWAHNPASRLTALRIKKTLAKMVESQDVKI

With `CN(C(=O)CN1CCOCC1)c1ccc2sc3c(-c4cccc5c(=O)cc(N6CC7CCC(C6)O7)oc45)cccc3c2c1` [NU5455], the inhibition at 1 µM was -4.4%.

The record behind these values is publication PMC6934184, “Selective DNA-PKcs inhibition extends the therapeutic index of localized radiotherapy and chemotherapy” (The Journal of Clinical Investigation, 2019).
